Data published in ChEMBL document CHEMBL5042533, “Structural Optimization and Structure-Activity Relationship Studies of 6,6-Dimethyl-4-(phenylamino)-6H-pyrimido[5,4-b][1,4]oxazin-7(8H)-one Derivatives as A New Class of Potent Inhibitors of Pan-Trk and Their Drug-Resistant Mutants” (J Med Chem, 2022).

How the values were obtained:
[1] = molecular target: High affinity nerve growth factor receptor (Homo sapiens, UniProt P04629); assay: Inhibition of wild type TrkA (unknown origin) using poly(Glu: Tyr) as substrate preincubated for 15 mins followed by substrate addition and further incubated for 30 mins in presence of [gamma-33P]ATP by scintillation counting method
[2] = molecular target: BDNF/NT-3 growth factors receptor (Homo sapiens, UniProt Q16620); assay: Inhibition of wild type TrkB (unknown origin) using poly(Glu: Tyr) as substrate preincubated for 15 mins followed by substrate addition and further incubated for 30 mins in presence of [gamma-33P]ATP by scintillation counting method
BaF3 [3] = assay: cells; conditions: Mus musculus
Description: Cytotoxicity against mouse BaF3 cells harboring TEL fused TrkC G613R mutant assessed as inhibition of cell growth by MTT assay

BaF3 [4] = assay: Cytotoxicity against mouse BaF3 cells expressing LMNA fused TrkA F589L mutant assessed as inhibition of cell growth incubated for 3 days by CCK-8 assay; type: functional, cell-based; conditions: BaF3, 72 h
BaF3 [5] = assay: cells; conditions: Mus musculus, BaF3, 72 h
Description: Cytotoxicity against mouse BaF3 cells expressing TEL fused TrkA assessed as inhibition of cell growth incubated for 3 days by CCK-8 assay

BaF3 [6] = assay: cells; conditions: Mus musculus, BaF3, 72 h; remark: listed apart in the source
Description: Cytotoxicity against mouse BaF3 cells expressing CD74 fused TrkA assessed as inhibition of cell growth incubated for 3 days by CCK-8 assay

BaF3 [7] = assay: cells; conditions: Mus musculus, BaF3, 72 h; remark: listed apart in the source
Description: Cytotoxicity against mouse BaF3 cells expressing TEL fused TrkC assessed as inhibition of cell growth incubated for 3 days by CCK-8 assay

BaF3 [8] = assay: cells; conditions: Mus musculus, BaF3, 72 h; remark: listed apart in the source
BaF3 [9] = assay: cells; conditions: Mus musculus, BaF3, 72 h; remark: listed apart in the source
BaF3 [10] = assay: cells; conditions: Mus musculus, BaF3, 72 h; remark: listed apart in the source
Description: Cytotoxicity against mouse BaF3 cells expressing LMNA fused TrkA G667S mutant assessed as inhibition of cell growth incubated for 3 days by CCK-8 assay

BaF3 [11] = assay: cells; conditions: Mus musculus, BaF3, 72 h; remark: listed apart in the source
Description: Cytotoxicity against mouse BaF3 cells expressing TEL fused TrkC G623R assessed as inhibition of cell growth incubated for 3 days by CCK-8 assay

cells = conditions: Homo sapiens, KM12-Luc, 72 h
Description: Cytotoxicity against human KM12-Luc cells expressing TPM3 fused TrkA assessed as inhibition of cell growth incubated for 3 days by CCK-8 assay

in vitro = conditions: mouse, BaF3 cells
Description: Cytotoxicity against mouse BaF3 assessed as inhibition of cell growth incubated for 3 days by CCK-8 assay

BaF3 [12] = assay: cells; conditions: Mus musculus, BaF3, 72 h; remark: listed apart in the source
Description: Cytotoxicity against mouse BaF3 cells expressing TEL fused TrkC G696C assessed as inhibition of cell growth incubated for 3 days by CCK-8 assay

Chain of BDNF/NT-3 growth factors receptor (Q16620 whole entry): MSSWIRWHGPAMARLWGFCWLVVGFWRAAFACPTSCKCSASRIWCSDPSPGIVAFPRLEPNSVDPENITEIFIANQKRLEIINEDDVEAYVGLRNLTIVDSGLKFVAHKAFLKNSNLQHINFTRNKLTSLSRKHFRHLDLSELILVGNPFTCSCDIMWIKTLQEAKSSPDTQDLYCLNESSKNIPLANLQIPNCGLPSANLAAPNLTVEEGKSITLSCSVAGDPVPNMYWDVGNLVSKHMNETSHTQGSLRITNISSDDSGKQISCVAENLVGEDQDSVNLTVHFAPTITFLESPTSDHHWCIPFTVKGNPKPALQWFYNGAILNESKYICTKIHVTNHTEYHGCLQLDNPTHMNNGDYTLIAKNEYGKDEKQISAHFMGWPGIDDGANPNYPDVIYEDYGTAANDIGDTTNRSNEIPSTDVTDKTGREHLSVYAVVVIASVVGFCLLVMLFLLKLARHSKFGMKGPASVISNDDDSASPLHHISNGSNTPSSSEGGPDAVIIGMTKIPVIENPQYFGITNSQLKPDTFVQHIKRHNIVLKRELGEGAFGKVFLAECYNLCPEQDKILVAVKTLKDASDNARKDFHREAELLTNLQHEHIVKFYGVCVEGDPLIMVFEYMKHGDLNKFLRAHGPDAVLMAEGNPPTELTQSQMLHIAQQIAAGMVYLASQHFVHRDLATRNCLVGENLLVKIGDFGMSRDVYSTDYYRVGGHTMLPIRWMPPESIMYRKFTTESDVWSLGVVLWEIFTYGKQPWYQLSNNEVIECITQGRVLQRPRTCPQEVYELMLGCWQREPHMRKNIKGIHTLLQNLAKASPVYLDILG
Chain of High affinity nerve growth factor receptor (P04629 whole entry): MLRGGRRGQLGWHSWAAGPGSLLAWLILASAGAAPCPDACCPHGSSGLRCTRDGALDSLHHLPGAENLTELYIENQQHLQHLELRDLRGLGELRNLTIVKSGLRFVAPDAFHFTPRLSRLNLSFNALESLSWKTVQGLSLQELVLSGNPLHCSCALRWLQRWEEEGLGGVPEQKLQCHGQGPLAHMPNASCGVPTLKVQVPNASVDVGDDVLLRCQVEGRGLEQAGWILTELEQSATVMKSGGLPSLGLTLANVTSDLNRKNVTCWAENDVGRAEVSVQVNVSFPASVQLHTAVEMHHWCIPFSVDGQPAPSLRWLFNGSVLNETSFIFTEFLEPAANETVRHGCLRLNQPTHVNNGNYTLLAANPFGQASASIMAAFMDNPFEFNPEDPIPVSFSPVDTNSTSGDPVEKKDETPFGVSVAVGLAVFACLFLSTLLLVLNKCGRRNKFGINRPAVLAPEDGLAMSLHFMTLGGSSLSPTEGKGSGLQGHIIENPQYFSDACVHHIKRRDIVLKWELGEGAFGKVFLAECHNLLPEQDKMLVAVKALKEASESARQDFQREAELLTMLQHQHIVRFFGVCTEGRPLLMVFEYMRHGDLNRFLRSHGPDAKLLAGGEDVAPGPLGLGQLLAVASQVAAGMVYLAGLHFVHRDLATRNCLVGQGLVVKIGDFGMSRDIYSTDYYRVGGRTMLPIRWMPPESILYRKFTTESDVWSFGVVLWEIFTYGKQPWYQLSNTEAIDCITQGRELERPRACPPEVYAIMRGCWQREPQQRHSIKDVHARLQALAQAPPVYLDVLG

| SMILES | IC50 [1] [nM] | IC50 [2] [nM] | IC50 (BaF3 [3]) [nM] | further results |
| --- | --- | --- | --- | --- |
| COc1cc(NC(=O)Nc2cc(C(C)(C)C)nn2-c2ccccc2)ccc1Nc1ncnc2c1OC(C)(C)C(=O)N2 | 50 | 123 | 9290 | – |
| CC1(C)Oc2c(ncnc2Nc2ccc(NC(=O)Nc3cc(C(C)(C)C)nn3-c3ccccc3)c3ccccc23)NC1=O | 87 | 88 | 382 | – |
| CC1(C)Oc2c(ncnc2Nc2ccc(NC(=O)Nc3cc(C(F)(F)F)cc(C(F)(F)F)c3)cc2)NC1=O | 100 | 202 | 5080 | – |
| CC1(C)Oc2c(ncnc2Nc2ccc(NC(=O)Nc3ccc(Cl)c(C(F)(F)F)c3)cc2)NC1=O | 211 | 381 | 1350 | – |
| CC1(C)Oc2c(ncnc2Nc2ccc(NC(=O)Nc3cc(C(C)(C)C)nn3-c3ccccc3)c(C(F)(F)F)c2)NC1=O | 149 | 182 | 3900 | – |
| CC1(C)Oc2c(ncnc2Nc2ccc(NC(=O)Nc3cccc(F)c3)cc2)NC1=O | > 10000 | > 10000 | – | – |
| CC1(C)Oc2c(ncnc2Nc2ccc(NC(=O)NC34C[C@H]5C[C@@H](C3)C[C@@H](C4)C5)cc2)NC1=O | > 10000 | > 10000 | – | – |
| Cc1cc(NC(=O)Nc2cc(C(C)(C)C)nn2-c2ccc(OC(F)(F)F)cc2)ccc1Nc1ncnc2c1OC(C)(C)C(=O)N2 | 46 | 40 | 86 | – |
| Cc1cc(NC(=O)Nc2cc(C(C)(C)C)nn2-c2ccccc2)ccc1Nc1ncnc2c1OC(C)(C)C(=O)N2 | 13 | – | 51 | IC50 (BaF3 [4]): 19 nM; IC50 (BaF3 [5]): 15 nM; IC50 (BaF3 [6]): 5 nM; IC50 (BaF3 [7]): 39 nM; IC50 (BaF3 [8]): 151 nM; IC50 (BaF3 [9]): 2 nM; IC50 (BaF3 [10]): 34 nM; IC50 (BaF3 [11]): 51 nM; IC50 (cells): 21 nM; IC50 at 3 days (in vitro): > 10000 nM |
| Cc1cc(NC(=O)Nc2cc(-c3ccccc3)nn2-c2ccccc2)ccc1Nc1ncnc2c1OC(C)(C)C(=O)N2 | 38 | 171 | 1900 | – |
| Cc1cc(Nc2ncnc3c2OC(C)(C)C(=O)N3)ccc1NC(=O)Nc1cc(C(C)(C)C)nn1-c1ccccc1 | 127 | 88 | 6040 | – |
| Cc1ccc(NC(=O)Nc2ccc(Nc3ncnc4c3OC(C)(C)C(=O)N4)cc2)cc1 | > 10000 | > 10000 | – | – |
| CC1(C)Oc2c(ncnc2Nc2ccc(NC(=O)Nc3ccc(F)c(F)c3)cc2)NC1=O | > 10000 | > 10000 | – | – |
| CC1(C)Oc2c(ncnc2Nc2cccc(NC(=O)Nc3cc(C(C)(C)C)nn3-c3ccccc3)c2)NC1=O | – | 342 | > 10000 | – |
| CC1(C)Oc2c(ncnc2Nc2ccc(NC(=O)NC3CCCCC3)cc2)NC1=O | > 10000 | > 10000 | – | – |
| CCNC(=O)Nc1ccc(Nc2ncnc3c2OC(C)(C)C(=O)N3)cc1 | > 10000 | > 10000 | – | – |
| Cc1cc(NC(=O)Nc2cc(C(C)(C)C)nn2-c2ccccc2F)ccc1Nc1ncnc2c1OC(C)(C)C(=O)N2 | 20 | 15 | 3270 | – |
| O=C(Nc1cnn2ccc(N3CCC[C@@H]3c3cc(F)ccc3F)nc12)N1CC[C@H](O)C1 [LAROTRECTINIB] | – | – | – | IC50 (BaF3 [4]): 547 nM; IC50 (BaF3 [5]): 11 nM; IC50 (BaF3 [6]): 1 nM; IC50 (BaF3 [7]): 59 nM; IC50 (BaF3 [8]): 4060 nM; IC50 (BaF3 [9]): 1260 nM; IC50 (BaF3 [10]): 321 nM; IC50 (BaF3 [11]): 1490 nM; IC50 (BaF3 [12]): 586 nM; IC50 (cells): 11 nM; IC50 at 3 days (in vitro): 3570 nM |
| CC1(C)Oc2c(ncnc2Nc2ccc(NC(=O)Nc3cc(C(C)(C)C)nn3-c3ccccc3)c(F)c2)NC1=O | 81 | 38 | 978 | – |
| CC1(C)Oc2c(ncnc2Nc2ccc(NC(=O)Nc3cc(C(C)(C)C)nn3C(C)(C)C)cc2)NC1=O | 6200 | 1400 | > 10000 | – |

| SMILES | IC50 [1] [nM] | IC50 [2] [nM] | IC50 (BaF3 [3]) [nM] | further results |
| --- | --- | --- | --- | --- |
| CC1(C)Oc2c(ncnc2Nc2ccc(NC(=O)Nc3cc(C(C)(C)C)nn3C3CCCCC3)cc2)NC1=O | 344 | 228 | 1560 | – |
| COc1cc(Nc2ncnc3c2OC(C)(C)C(=O)N3)ccc1NC(=O)Nc1cc(C(C)(C)C)nn1-c1ccccc1 | 38 | 10 | 978 | – |
| Cc1cc(NC(=O)Nc2cc(C3CC3)nn2-c2ccccc2)ccc1Nc1ncnc2c1OC(C)(C)C(=O)N2 | 23 | 10 | 2010 | – |
| Cc1cc(NC(=O)Nc2cc(C(C)(C)C)nn2-c2ccc(F)cc2)ccc1Nc1ncnc2c1OC(C)(C)C(=O)N2 | 30 | 12 | 245 | – |
| CC(C)(C)NC(=O)Nc1ccc(Nc2ncnc3c2OC(C)(C)C(=O)N3)cc1 | > 10000 | > 10000 | – | – |
| CSc1cc(Nc2ncnc3c2OC(C)(C)C(=O)N3)ccc1NC(=O)Nc1cc(C(C)(C)C)nn1-c1ccccc1 | 89 | 106 | 230 | – |
| C=CCNC(=O)Nc1ccc(Nc2ncnc3c2OC(C)(C)C(=O)N3)cc1 | > 10000 | > 10000 | – | – |
| Cc1cc(NC(=O)Nc2cc(C(C)(C)C)nn2-c2cccnc2)ccc1Nc1ncnc2c1OC(C)(C)C(=O)N2 | 14 | 22 | 709 | – |
| CC1(C)Oc2c(ncnc2Nc2ccc(NC(=O)Nc3cc(C(C)(C)C)on3)cc2)NC1=O | 156 | 33 | 3760 | – |
| Cc1cc(NC(=O)Nc2cc(C(C)(C)C)nn2-c2c(F)c(F)c(F)c(F)c2F)ccc1Nc1ncnc2c1OC(C)(C)C(=O)N2 | 52 | 42 | 740 | – |
| CC1(C)Oc2c(ncnc2Nc2ccc(NC(=O)Nc3cc(C(C)(C)C)nn3-c3ccccc3)cc2)NC1=O | 35 | 21 | 396 | – |
| CC(C)n1nc(C(C)(C)C)cc1NC(=O)Nc1ccc(Nc2ncnc3c2OC(C)(C)C(=O)N3)cc1 | > 10000 | > 10000 | > 10000 | – |
| CC1(C)Oc2c(ncnc2Nc2ccc(NC(=O)Nc3cc(C(C)(C)C)no3)cc2)NC1=O | 111 | 48 | 6520 | – |
| Cc1cc(NC(=O)Nc2cc(C(C)(C)C)nn2-c2ccc3ccccc3c2)ccc1Nc1ncnc2c1OC(C)(C)C(=O)N2 | 41 | 245 | > 10000 | – |
| Cc1cc(NC(=O)Nc2cc(C(C)(C)C)nn2-c2cccc(F)c2)ccc1Nc1ncnc2c1OC(C)(C)C(=O)N2 | 13 | 14 | 1140 | – |
| CC1(C)Oc2c(ncnc2Nc2ccc(NC(=O)Nc3cccc(C(F)(F)F)c3)cc2)NC1=O | – | 17 | 4020 | – |
| Cn1nc(C(C)(C)C)cc1NC(=O)Nc1ccc(Nc2ncnc3c2OC(C)(C)C(=O)N3)cc1 | > 10000 | > 10000 | – | – |
| CC1(C)Oc2c(ncnc2Nc2ccc(NC(=O)Nc3ccc(C#N)cc3)cc2)NC1=O | > 10000 | > 10000 | – | – |
| Cc1cc(NC(=O)Nc2cc(C(C)(C)C)nn2-c2ccc(C(F)(F)F)cc2)ccc1Nc1ncnc2c1OC(C)(C)C(=O)N2 | – | – | 86 | IC50 (BaF3 [4]): 13 nM; IC50 (BaF3 [5]): 2 nM; IC50 (BaF3 [6]): 2 nM; IC50 (BaF3 [9]): 2 nM; IC50 (BaF3 [10]): 10 nM; IC50 (BaF3 [11]): 86 nM; IC50 (BaF3 [12]): 3 nM; IC50 (cells): 13 nM; IC50 at 3 days (in vitro): > 10000 nM |
